The target in test [1] is T1, α1A-AR (Rattus norvegicus, UniProt P43140).
T1 construct: expressed in transfected cells; host or cells: COS-1
T1 sequence (P43140 1-466): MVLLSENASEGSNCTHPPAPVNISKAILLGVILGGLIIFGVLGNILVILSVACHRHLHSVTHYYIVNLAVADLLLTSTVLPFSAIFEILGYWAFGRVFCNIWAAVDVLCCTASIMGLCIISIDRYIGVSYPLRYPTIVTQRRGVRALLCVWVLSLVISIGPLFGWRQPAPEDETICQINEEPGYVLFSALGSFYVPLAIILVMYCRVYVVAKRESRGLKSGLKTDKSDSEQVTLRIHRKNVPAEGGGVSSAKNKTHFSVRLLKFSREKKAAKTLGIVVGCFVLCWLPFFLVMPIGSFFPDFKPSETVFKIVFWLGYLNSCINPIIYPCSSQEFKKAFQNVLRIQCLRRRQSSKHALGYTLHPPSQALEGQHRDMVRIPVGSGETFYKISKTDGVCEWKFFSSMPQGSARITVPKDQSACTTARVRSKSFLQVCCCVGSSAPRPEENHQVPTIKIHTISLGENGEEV
In words: Phosphatidylinositol hydrolysis (IP accumulation) assay in COS-1 cells expressing α1A-AR. The settings on record: for IC50: 20 min compound, then 10 µM (-)-norepinephrine 30 min, COS-1 cells, read-out: pIC50, inhibition of norepinephrine induced IP accumulation at α1A-AR (converted). In kind it is cell-based, rodent. As to the method:
(§1) COS-1 cells (American Type Culture Collection, Manassas, VA) were cultured in Dulbecco's modified Eagle's medium (DMEM) supplemented with 10% (v/v) heat inactivated fetal bovine serum (FBS), 100 µg ml^−1 penicillin and 100 µg ml^−1 streptomycin. Cells were maintained and passaged upon reaching confluence by standard cell culture techniques. pMT4 plasmids containing rodent α1-AR (a kind gift from Prof R Graham, Victor Chang Cardiac Research Institute, Australia) were used to transfect cells. Transient expression in COS-1 cells was accomplished using two techniques; the diethylaminoethane-dextran (DEAE-dextran) and Lipofectamine 2000 (Invitrogen, Carlsbad, CA, USA) methods. Briefly, the DEAE-dextran method involved washing of cells with phosphate buffered saline (PBS), followed by the addition of the DNA mixture (12–25 µg/4×10^6 cells) in DEAE-dextran (10 mg ml^−1) to cells at 60–80% confluency. Following a 3 h incubation, a PBS wash with 10% DMSO was used to shock the cells. Cells were harvested 72 h post transfection. For the Lipofectamine 2000 method, cells were incubated for 12 h with Opti-MEM (GIBCO BRL, Gaithersburg, MD, USA) containing Lipofectamine 2000.
Accumulation of [^3H] inositol phosphates (IPs) was determined as described previously. Briefly, COS-1 cells were transiently transfected with α1A, α1B and α1D - AR pMT4 plasmids using the Lipofectamine method. 24 h after transfection, cells were seeded into 96 well plates and labelled overnight with 20 µCi ml^−1 [^3H]myo-inositol in inositol free DMEM supplemented with 5% charcoal stripped FBS. Cells were washed twice with inositol free DMEM, and incubated in inositol free DMEM for 2 h at 37°C. Cells were treated for 20 minutes with LiCl (20 mM) and propanolol (20 µM) in the presence or absence of tested compounds. Agonists were then added for 30 min, and the reaction was terminated by addition of 0.4 M formic acid. Cells were lysed by freeze thawing twice and were applied to AG 1-X8 columns. Total IPs were eluted with 1 M ammonium formate in 0.1 M formic acid. 200 µL of eluted sample was diluted with 1 mL reverse osmosis water and 5 mL Ultimaflow scintillation fluid (Perkin Elmer), and were counted in a liquid scintillation counter.
Compounds were administered alone (100 µM) or prior to the addition of 10 µM […], to screen for agonist or antagonist activity respectively.
Figure 2 Inhibition of norepinephrine induced inositol phosphate (IP) accumulation at α1A- AR. α1A-AR transfected cells labelled overnight with [^3H]- myo-inositol were treated with indicated concentrations (300 µM – 0.1 µM) of test compounds, 1 (▪), 2 (▵), and 11 (○), for 20 min. This was followed by a 30 min. stimulation with 10 µM (-)- norepinephrine, following which total IP accumulation was determined. Data was normalized against basal COS-1 cell IP production and expressed as a percentage of the (-)-norepinephrine-stimulated maximal IP response of that receptor subtype. The data represented the mean ± SE of a single experiment (n = 4–5), performed in triplicate.
Figure 3 Inositol phosphate (IP) accumulation in the presence of norepinephrine and compound 8 at the α1A- adrenoceptor (AR). α1A-AR transfected cells were labelled with [^3H]- myo-inositol. Following a 20 min. treatment with lithium chloride (20 mM) and propanolol (20 µM) the cells were stimulated with the indicated concentrations (300 µM − 0.1 µM) of (-) norepinephrine (•) or compound 8 (▪) for 30 min. Total inositol phosphate (IP) accumulation was determined as described under “Materials and Methods”. Data was normalized against basal COS-1 cell IP production and expressed as a percentage of the (-)-norepinephrine-stimulated maximal IP response. The data represents the mean ± SE of three separate experiments (n = 3), performed in duplicate or triplicate.

Test [2] concerns the target T2, α1D-AR (Rattus norvegicus, UniProt P23944).
T2 construct: expressed in transfected cells; host or cells: COS-1
T2 sequence (P23944 1-561): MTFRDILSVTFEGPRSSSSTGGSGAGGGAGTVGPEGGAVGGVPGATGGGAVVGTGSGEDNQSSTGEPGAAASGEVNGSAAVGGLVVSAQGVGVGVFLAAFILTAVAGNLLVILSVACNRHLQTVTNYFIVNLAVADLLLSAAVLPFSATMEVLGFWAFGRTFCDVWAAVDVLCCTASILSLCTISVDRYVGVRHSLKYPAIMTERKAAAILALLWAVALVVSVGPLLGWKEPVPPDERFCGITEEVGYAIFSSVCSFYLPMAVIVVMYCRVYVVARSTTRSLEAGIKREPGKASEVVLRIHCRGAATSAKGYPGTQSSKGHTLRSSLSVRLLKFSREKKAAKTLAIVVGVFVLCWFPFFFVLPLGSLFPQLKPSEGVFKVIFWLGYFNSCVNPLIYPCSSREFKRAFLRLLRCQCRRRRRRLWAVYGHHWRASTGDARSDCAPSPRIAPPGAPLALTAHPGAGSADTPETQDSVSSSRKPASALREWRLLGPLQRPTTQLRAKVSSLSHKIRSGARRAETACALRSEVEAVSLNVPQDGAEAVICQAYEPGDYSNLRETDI
In words: Phosphatidylinositol hydrolysis (IP accumulation) assay in COS-1 cells expressing α1D-AR. In kind it is cell-based, rodent. The settings on record: 100 µM compound alone, agonist screen, n = 3. Here is the method: as §1, with “For the Lipofectamine 2000 method, cells were incubated for 12 h with Opti-MEM (GIBCO BRL, Gaithersburg, MD, USA) containing Lipofectamine 2000.” left out
Accumulation of [^3H] inositol phosphates (IPs) was determined as described previously. […] 200 µL of eluted sample was diluted with 1 mL reverse osmosis water and 5 mL Ultimaflow scintillation fluid (Perkin Elmer), and were counted in a liquid scintillation counter. […]

Structures are written as SMILES.

With `Cc1ccc(C)c(N2CCN(CC(O)COC(C)(C)C)CC2)c1` (stereo not drawn) [Compound 1], the IC50 in test [1] was 25.1 µM.

As to `CCCCCCCCN(CCCCCCCC)CC(O)c1ccccc1Cl` (stereo not drawn) [Compound 8], the “IP production, compound alone, compared to control, α1A-AR” value in test [1] (100 µM compound alone, agonist screen, n = 3) is “distinct trend of increased IP production”. For the same compound, in test [1] (COS-1 cells expressing α1A-AR), the “Maximal IP production, % of the (-) norepinephrine control” value is on record as “approximately 30%”. Besides, the EC50 in test [1] (COS-1 cells expressing α1A-AR, 30 min, n = 3, read-out: pEC50, increase in intracellular IP at α1A-AR (converted)) is 5.5 µM. Moreover, in test [2], the “IP production, compound alone, compared to control, α1D-AR” value is “distinct trend of increased IP production”.

For the compound `COc1cc2c(cc1OC)C1CC(C)=C(c3ccccc3)CN1CC2` (stereo not drawn) [Compound 11], the IC50 in test [1] was 13.2 µM.

(Values after PMC3091868, “A Novel Structural Framework for α1A/D-Adrenoceptor Selective Antagonists Identified Using Subtype Selective Pharmacophores” (PLoS ONE, 2011).)
